Data published in US20110312973A1, “SOLID COMPOSITIONS” (priority 2010, published 2011).

Assay: Aqueous solubility
Type: physicochemical

Q: For `Cc1cnc(C(=O)N[C@H]2CCCCC/C=C\[C@@H]3C[C@@]3(C(=O)NS(=O)(=O)C3CC3)NC(=O)[C@@H]3C[C@@H](Oc4nc5ccccc5c5ccccc45)CN3C2=O)cn1` [Compound I, (2R,6S,13aS,14aR,16aS,Z)-N-(cyclopropylsulfonyl)-6-(5-methylpyrazine-2-carboxamido)-5,16-dioxo-2-(phenanthridin-6-yloxy)-1,2,3,5,6,7,8,9,10,11,13a,14,14a,15,16,16a-hexadecahydrocyclopropa[e]pyrrolo[1,2-a][1,4]diazacyclopentadecine-14a-carboxamide], which aqueous solubility is on record?
A: low aqueous solubility
